Common to all, as to format: in vivo
Assay [1] relates to Digitaria sanguinalis (DIGSA). In words: Test Example 1 post-emergence herbicidal activity. To be noted: 360 h, rate 125 g/ha, evaluated 15 days later, read-out: Post-emergence activity DIGSA (100=total damage to plant; 0=no damage to plant). The essentials:
(§1)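 Greenhouse pot test; spray application pre-emergence (1 d after sowing) or post-emergence (10 d growth). Rating 0–100% damage; pre read at 20 d, post at 15 d.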

Assay [2] concerns Lolium perenne (LOLPE). Nature of the assay: Test Example 1 post-emergence herbicidal activity. As to conditions: 360 h, rate 125 g/ha, evaluated 15 days later, read-out: Post-emergence activity LOLPE (100=total damage to plant; 0=no damage to plant). The essentials:
as §1

Assay [3] has as its system Avena fatua (AVEFA). In words: Test Example 1 post-emergence herbicidal activity. To be noted: 360 h, rate 125 g/ha, evaluated 15 days later, read-out: Post-emergence activity AVEFA (100=total damage to plant; 0=no damage to plant). The essentials: as §1
In assay [4] the test system is Alopecurus myosuroides (ALOMY). In words: Test Example 1 post-emergence herbicidal activity. To be noted: 360 h, rate 125 g/ha, evaluated 15 days later, read-out: Post-emergence activity ALOMY (100=total damage to plant; 0=no damage to plant). The essentials: as §1
For assay [5], the system named is Echinochloa crus-galli (ECHCG). Nature of the assay: Test Example 1 post-emergence herbicidal activity. As to conditions: 360 h, rate 125 g/ha, evaluated 15 days later, read-out: Post-emergence activity ECHCG (100=total damage to plant; 0=no damage to plant). The essentials:
as §1

Assay [6] relates to Setaria faberi (SETFA). Nature of the assay: Test Example 1 post-emergence herbicidal activity. As to conditions: 360 h, rate 125 g/ha, evaluated 15 days later, read-out: Post-emergence activity SETFA (100=total damage to plant; 0=no damage to plant). The essentials:
as §1

In assay [7] the test system is Digitaria sanguinalis (DIGSA). Nature of the assay: Test Example 1 pre-emergence herbicidal activity. To be noted: Digitaria sanguinalis, 480 h, rate 250 g/ha, evaluated 20 days later, read-out: Pre-emergence activity DIGSA (100=total damage to plant; 0=no damage to plant). The essentials:
as §1

The subject of assay [8] is Lolium perenne (LOLPE). In words: Test Example 1 pre-emergence herbicidal activity. As to conditions: Lolium perenne, 480 h, rate 250 g/ha, evaluated 20 days later, read-out: Pre-emergence activity LOLPE (100=total damage to plant; 0=no damage to plant). The essentials: as §1
For assay [9], the system named is Avena fatua (AVEFA). In words: Test Example 1 pre-emergence herbicidal activity. As to conditions: Avena fatua, 480 h, rate 250 g/ha, evaluated 20 days later, read-out: Pre-emergence activity AVEFA (100=total damage to plant; 0=no damage to plant). The essentials:
as §1

For assay [10], the system named is Alopecurus myosuroides (ALOMY). Nature of the assay: Test Example 1 pre-emergence herbicidal activity. To be noted: Alopecurus myosuroides, 480 h, rate 250 g/ha, evaluated 20 days later, read-out: Pre-emergence activity ALOMY (100=total damage to plant; 0=no damage to plant). The essentials: as §1
The test system of assay [11] is Echinochloa crus-galli (ECHCG). In words: Test Example 1 pre-emergence herbicidal activity. As to conditions: Echinochloa crus-galli, 480 h, rate 250 g/ha, evaluated 20 days later, read-out: Pre-emergence activity ECHCG (100=total damage to plant; 0=no damage to plant). The essentials: as §1
Assay [12] has as its system Setaria faberi (SETFA). In words: Test Example 1 pre-emergence herbicidal activity. To be noted: Setaria faberi, 480 h, rate 250 g/ha, evaluated 20 days later, read-out: Pre-emergence activity SETFA (100=total damage to plant; 0=no damage to plant). The essentials: as §1

Molecules are shown by their SMILES.

For the compound `CCc1cc(C)cc(CC)c1C1=C(O)[C@@H]2[C@@H]3O[C@@H](C[C@H]3c3cccc(C(F)(F)F)c3)[C@@H]2C1=O` [Example T154], the pest or weed control at 125 g/ha in assay [1] came to 70%; in assay [2] it was 60%; in assay [3], 60%; in assay [4] it was 90%; in assay [5], 100%; in assay [6], 70%. The pest or weed control at 250 g/ha in assay [7] is 70%; in [8] it was 80%; in assay [9], 50%; in [10], 70%; in assay [11], 100%; in assay [12] it was 70%.
Take `CCc1cc(C)cc(CC)c1C1=C(O)[C@@H]2[C@@H]3O[C@@H](C[C@H]3c3ccc(Cl)cc3)[C@@H]2C1=O` [Example T155]: the pest or weed control at 125 g/ha in [1] came out at 100%; in assay [2] it was 60%; in assay [3] it was 70%; in [4], 90%; in assay [5], 100%; in [6] it was 100%. Moreover, the pest or weed control at 250 g/ha in assay [7] worked out at 70%; in assay [8] it was 80%; in [9], 50%; in [10] it was 60%; in assay [11], 60%; in assay [12] it was 60%.
In the case of `CCc1cc(C)cc(CC)c1C1=C(O)C2[C@@H](C1=O)[C@@H]1C[C@@H](c3ccc(OC)cc3)[C@H]2O1` (stereo partly drawn) [Example T156], the pest or weed control at 125 g/ha was 70% in assay [1]; 70% in assay [2]; 80% in [3]; 90% in assay [4]; 100% in [5]; 100% in [6]. Moreover, the pest or weed control at 250 g/ha in assay [7] came out at 70%; in assay [8] it was 70%; in assay [9], 60%; in assay [10] it was 70%; in [11] it was 70%; in assay [12], 70%.
On to `CCc1cc(C)cc(CC)c1C1=C(O)[C@@H]2[C@@H]3O[C@@H](C[C@H]3c3ccc([N+](=O)[O-])cc3)[C@@H]2C1=O` [Example T158], for which the pest or weed control at 125 g/ha in assay [1] was determined as 100%; in assay [2], 80%; in assay [3], 90%; in [4] it was 90%; in [5], 100%; in assay [6], 100%. Moreover, the pest or weed control at 250 g/ha came out at 70% in [7]; 70% in assay [8]; 50% in [9]; 60% in assay [10]; 50% in assay [11]; 70% in [12].
Consider `CCc1cc(C)cc(CC)c1C1=C(O)[C@@H]2[C@@H]3O[C@@H](C[C@H]3c3ccc(C#N)cc3)[C@@H]2C1=O` [Example T160], for which the pest or weed control at 125 g/ha in assay [1] is 100%; in assay [2] it was 70%; in assay [3], 90%; in assay [4], 90%; in [5], 100%; in assay [6], 100%. For the same compound, the pest or weed control at 250 g/ha was found to be 40% in assay [7]; 40% in assay [8]; 50% in [9]; 30% in assay [10]; 40% in assay [11]; 70% in assay [12].
Take `CCc1cc(C)cc(CC)c1C1=C(O)[C@@H]2[C@@H]3O[C@@H](C[C@H]3c3ccc(SC)cc3)[C@@H]2C1=O` [Example T162]: the pest or weed control at 125 g/ha in assay [1] was determined as 100%; in assay [2], 70%; in assay [3], 90%; in [4], 90%; in assay [5], 100%; in assay [6], 100%. Besides, the pest or weed control at 250 g/ha in assay [7] came out at 40%; in assay [8] it was 90%; in [9] it was 70%; in assay [10] it was 70%; in assay [11], 80%; in assay [12] it was 10%.
On to `CCc1cc(C)cc(CC)c1C1=C(O)[C@@H]2[C@@H]3O[C@@H](C[C@H]3c3ccc(F)cc3F)[C@@H]2C1=O` [Example T163], for which the pest or weed control at 125 g/ha in [1] is 70%; in assay [2] it was 80%; in assay [3] it was 80%; in assay [4], 80%; in [5], 100%; in assay [6], 90%. For the same compound, the pest or weed control at 250 g/ha in assay [7] is 90%; in assay [8] it was 90%; in [9] it was 60%; in [10] it was 70%; in [11], 80%; in [12], 90%.
Regarding `CCc1cc(C)cc(CC)c1C1=C(O)[C@@H]2[C@@H]3O[C@@H](C[C@H]3c3ccc([N+](=O)[O-])cc3Cl)[C@@H]2C1=O` [Example T167], the pest or weed control at 125 g/ha in assay [1] was found to be 70%; in assay [2], 50%; in [3], 50%; in assay [4] it was 80%; in assay [5], 100%; in assay [6], 70%. For the same compound, the pest or weed control at 250 g/ha in [7] was determined as 30%; in assay [8], 40%; in assay [9], 40%; in [10], 30%; in [11], 50%; in assay [12], 0%.
For `CCc1cc(C)cc(CC)c1C1=C(O)[C@@H]2[C@@H]3O[C@@H](C[C@H]3c3cc(C(F)(F)F)ccc3Cl)[C@@H]2C1=O` [Example T169], the pest or weed control at 125 g/ha came to 40% in assay [1]; 30% in [2]; 10% in assay [3]; 90% in assay [4]; 80% in assay [5]; 60% in assay [6]. In addition, the pest or weed control at 250 g/ha in assay [7] was 0%; in assay [8] it was 40%; in assay [9], 30%; in [10] it was 20%; in [11], 0%; in [12] it was 0%.
Take `CCc1cc(C)cc(CC)c1C1=C(O)[C@@H]2[C@@H]3O[C@@H](C[C@H]3c3ccc(C(C)=O)cc3)[C@@H]2C1=O` [Example T171]: the pest or weed control at 125 g/ha in assay [1] amounted to 80%; in [2], 20%; in [3], 60%; in assay [4] it was 70%; in assay [5], 100%; in assay [6], 90%. The pest or weed control at 250 g/ha in assay [7] came out at 40%; in assay [8] it was 10%; in [9] it was 0%; in assay [10] it was 30%; in assay [11], 70%; in [12], 70%.

Source of the values: patent US8754242B2, “Herbicides” (Syngenta Crop Protection LLC, priority 2007, dated 2014).
